Results published in PMC8167858, “Crystal structure of a novel homodimeric L‐ribulose 3‐epimerase from Methylomonus sp” (FEBS Open Bio, 2021).

Assays:
MetLRE (MetLRE_his) [1] = molecular target: T1, MetLRE (MetLRE_his) (Methylomonas sp. DH-1, UniProt A0A172U6X0); assay: X-ray crystal structure, […] Å; format: binding
T1 construct: gene AYM39_05640
T1 sequence (A0A172U6X0 1-286): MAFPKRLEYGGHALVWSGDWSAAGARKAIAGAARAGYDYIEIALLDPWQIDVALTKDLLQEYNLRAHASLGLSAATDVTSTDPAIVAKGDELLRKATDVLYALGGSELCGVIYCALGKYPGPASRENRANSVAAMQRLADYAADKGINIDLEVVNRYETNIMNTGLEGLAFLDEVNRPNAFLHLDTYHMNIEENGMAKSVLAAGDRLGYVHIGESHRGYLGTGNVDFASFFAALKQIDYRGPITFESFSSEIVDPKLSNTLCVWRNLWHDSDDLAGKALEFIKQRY

MetLRE (MetLRE_his) [2] = molecular target: T1, MetLRE (MetLRE_his); assay: X-ray crystal structure, […] Å; format: binding; details: crystal soaked in 15% (w/v) D-fructose; catalytic site with Mn2+; second site: beta-D-fructopyranose on surface near C terminus of Mol-A
his_MetLRElong2 = molecular target: T2, his_MetLRElong2 (Methylomonas sp. DH-1, UniProt A0A172U6X0, Y9I/Y37F/INS286TAIKTIELH/Y286L, form not given); assay: X-ray crystal structure, […] Å; format: binding; details: 0.1 M HEPES pH 7.5, PEG 8000, 8% ethylene glycol
T2 construct: gene AYM39_05640; full length with Y9I, Y37F, Y286L and nine extra residues TAIKTIELH added after residue 286 at the C terminus; N-terminal His-tag from pET15b (kept), E. coli BL21(DE3), homodimer

MetLRE (MetLRE_his) [3] = molecular target: T1, MetLRE (MetLRE_his); assay: thermal shift assay (SYPRO Orange); format: binding; details: melting temperature, not a shift: reference with Mn alone Tm1_Mn 72.5 ± 0.03 °C; 4 mM D-allulose, 0.8 mM MnCl2, 40 mM Tris/HCl pH 7.6; two-step unfolding, first transition
Text: thermal shift assay (SYPRO Orange) on MetLRE (MetLRE_his) | in the presence of Mn and D‐allulose (cyan line)

his_MetLRE = molecular target: T3, his_MetLRE (Methylomonas sp. DH-1, UniProt A0A172U6X0); assay: X-ray crystal structure, […] Å; format: binding; details: 0.1 M HEPES pH 7.5, PEG 8000, 8% ethylene glycol
T3 construct: gene AYM39_05640; full length 286 aa, N-terminal His-tag from pET15b (kept), E. coli BL21(DE3), homodimer
T3 sequence (A0A172U6X0 1-286): T1 sequence (A0A172U6X0 1-286)

[4] = substrate: O=C(CO)[C@@H](O)[C@@H](O)CO; assay: epimerization, product by HPLC; format: biochemical, Methylomonas sp. DH-1; details: 50 mM Tris/HCl pH 7.5, 1 mM MnCl2, 70 °C (conditions of the specificity assay)
[5] = molecular target: the molecule itself; assay: crystal structure; his_MetLRE (with D-allulose) and his_MetLRElong2 (with D-fructose); reservoir 0.1 M HEPES pH 7.5, 10% PEG 8000, 8% ethylene glycol; space group P1, six and eight molecules in an asymmetric unit; symmetry operation and PISA analysis
[6] = molecular target: the molecule itself; assay: crystal structure; MetLRE_his crystals, alone and soaked with D-fructose, D-allulose or L-tagatose; reservoir 0.2 M MgCl2, 0.1 M Tris/HCl pH 8.5, 25% PEG3350, 293 K; two molecules in an asymmetric unit

In the case of OCC1(O)OC[C@H](O)[C@@H](O)[C@@H]1O (stereo partly drawn) [L-sorbose], the “X-ray crystal structure, 1.70 Å” value (MetLRE (MetLRE_his) [1]; formed from soaked L-tagatose in crystal, catalytic site of Mol-A with Mn2+) is reported as “L‐sorbose (C3 epimer of L‐tagatose) was bound in the catalytic site”.

In the case of OCC1(O)OC[C@@H](O)[C@@H](O)[C@@H]1O (stereo partly drawn) [D-fructose], the “X-ray crystal structure, 1.80 Å” value (MetLRE (MetLRE_his) [2]) is reported as “MetLRE_his in complex with D‐fructose was crystallized in the orthorhombic space group” and the “X-ray crystal structure, 1.58 Å” value (his_MetLRElong2) is reported as “the crystal structure of his_MetLRElong2 in complex with D‐fructose was determined”.

In the case of OCC1(O)OC[C@H](O)[C@@H](O)[C@H]1O (stereo partly drawn) [L-tagatose], the “X-ray crystal structure, 1.70 Å” value (MetLRE (MetLRE_his) [1]; crystal soaked in 15% (w/v) L-tagatose, catalytic site of Mol-B with Mn2+, second site: alpha-L-tagatopyranose on surface of Mol-B) is reported as “The bound L‐tagatose was found in the catalytic site of Mol‐B”.

With OCC1(O)OC[C@@H](O)[C@@H](O)[C@H]1O (stereo partly drawn) [D-allulose] the Tm1_MnA (MetLRE (MetLRE_his) [3]) was 78.5 ± 0.1 °C and the “X-ray crystal structure, 2.05 Å” value (his_MetLRE) was “His_MetLRE in complex with D‐allulose was obtained in the triclinic space group P1”.

B1: MetLRE (MetLRE_his) (Methylomonas sp. DH-1) (protein)
chain: T1 sequence (A0A172U6X0 1-286)
In the case of B1, the Km [4] is reported as 22.4 ± 3.4 mM and the kcat [4] is reported as 82.05 ± 5.77 s⁻¹.

B2: N-terminal His-tagged L-ribulose 3-epimerase from Methylomonas sp. DH-1 (his_MetLRE) (enzyme, UniProt A0A172U6X0 1-286, looked up)
chain: T1 sequence (A0A172U6X0 1-286)
notes: L-ribulose 3-epimerase from Methylomonas sp; DH-1, NCBI WP_064020855.1, 286 a.a; primers from the start codon to the stop codon; N-terminal tag and additional residues come from pET15b; source: E. coli BL21(DE3) (pET15b, plasmid pETMetLRE), purified (HisTrap HP); not shown: His tag, N-terminal, kept
For B2, the “stoichiometry N” value [5] was 2.

B3: C-terminal His-tagged L-ribulose 3-epimerase from Methylomonas sp. DH-1 (MetLRE_his) (enzyme, UniProt A0A172U6X0 1-286, looked up)
chain: T1 sequence (A0A172U6X0 1-286)
notes: L-ribulose 3-epimerase (putative sugar isomerase/epimerase) from Methylomonas sp; DH-1, NCBI WP_064020855.1, 286 a.a; synthesized gene amplified from the start codon to the last codon (Y286), then a linker beginning at Gly287 and the His tag; Linker and tag follow Y286: Gly287 and Ser288 are in the linker; also called putative sugar isomerase/epimerase; source: E. coli JM109 (pQE60, plasmid …)
In the case of B3, the “stoichiometry N” value [6] is reported as 2.

B4: N-terminal His-tagged MetLRElong2 (his_MetLRE with nine additional residues TAIKTIELH at the C terminus and three mutations Y9I, Y37F, Y286L) (enzyme, Methylomonas sp. DH-1)
chain: MAFPKRLEIGGHALVWSGDWSAAGARKAIAGAARAGFDYIEIALLDPWQIDVALTKDLLQEYNLRAHASLGLSAATDVTSTDPAIVAKGDELLRKATDVLYALGGSELCGVIYCALGKYPGPASRENRANSVAAMQRLADYAADKGINIDLEVVNRYETNIMNTGLEGLAFLDEVNRPNAFLHLDTYHMNIEENGMAKSVLAAGDRLGYVHIGESHRGYLGTGNVDFASFFAALKQIDYRGPITFESFSSEIVDPKLSNTLCVWRNLWHDSDDLAGKALEFIKQRLTAIKTIELH
notes: L-ribulose 3-epimerase from Methylomonas sp; DH-1, NCBI WP_064020855.1, 286 a.a., with three mutations; nine additional residues at the C terminus, chosen on the tetramer form of AgDAE; source: E. coli BL21(DE3) (pET15b, plasmid pETMetLRElong2), purified (HisTrap HP); not shown: His tag, N-terminal, kept
With B4 the “stoichiometry N” value [5] was 2.
